Experimental data: US10597388B2, “Pyridazinone herbicides” (FMC CORPORATION, priority 2014, dated 2020)

Legend:
Assay in all cases: Test D controlled growth environment herbicide test, pre- and postemergence
Type in all cases: in vivo
[1] = system: Russian thistle (Salsola kali); conditions: for Russian Thistle plant response rating / Plant response rating (scale of 0 to 100), Russian Thistle: 31 g ai/ha
Procedure, shortened: (§1)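 Rating is visual, 0–100 scale (100 = complete control), made against untreated plants 14–21 d after treatment in controlled growth conditions. Postemergence sprays went onto 1- to 4-leaf plants in peat medium; preemergence sprays onto silt loam after sowing; formulation included a surfactant.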

[2] = system: canarygrass (Phalaris minor); conditions: for Canarygrass plant response rating / Plant response rating (scale of 0 to 100), Canarygrass: 31 g ai/ha
Procedure, shortened: as §1

[3] = system: radish, wild (wild radish, Raphanus raphanistrum); conditions: for Radish, Wild plant response rating / Plant response rating (scale of 0 to 100), Radish, Wild: 31 g ai/ha
Procedure, shortened: as §1

[4] = system: wheat, spring (spring wheat, Triticum aestivum); conditions: for Wheat, Spring plant response rating / Plant response rating (scale of 0 to 100), Wheat, Spring: 31 g ai/ha
Procedure, shortened: as §1

[5] = system: barley, winter (winter barley, Hordeum vulgare)
Procedure, shortened: as §1

[6] = system: field poppy (Papaver rhoeas)
Procedure, shortened: as §1

[7] = system: bluegrass (annual bluegrass, Poa annua)
Procedure, shortened: as §1

[8] = system: lambsquarters (Chenopodium album); conditions: for Lambsquarters plant response rating / Plant response rating (scale of 0 to 100), Lambsquarters: 31 g ai/ha
Procedure, shortened: as §1

[9] = system: wheat, winter (winter wheat, Triticum aestivum); conditions: for Wheat, Winter plant response rating / Plant response rating (scale of 0 to 100), Wheat, Winter: 31 g ai/ha
Procedure, shortened: as §1

[10] = system: field violet (Viola arvensis); conditions: for Field Violet plant response rating / Plant response rating (scale of 0 to 100), Field Violet: 31 g ai/ha
Procedure, shortened: as §1

[11] = system: barley, spring (spring barley, Hordeum vulgare)
Procedure, shortened: as §1

[12] = system: oat, wild (wild oat, Avena fatua); conditions: for Oat, Wild plant response rating / Plant response rating (scale of 0 to 100), Oat, Wild: 31 g ai/ha
Procedure, shortened: as §1

[13] = system: chickweed (common chickweed, Stellaria media); conditions: for Chickweed plant response rating / Plant response rating (scale of 0 to 100), Chickweed: 31 g ai/ha
Procedure, shortened: as §1

[14] = Postemergence, scale 0 to 100 (0 no effect, 100 complete control)
[15] = Postemergence, 125 g ai/ha, visual rating on scale 0 (no effect) to 100 (complete control), 14 to 21 d
[16] = Postemergence, 250 g ai/ha, scale 0 to 100 (0 no effect, 100 complete control)
[17] = Preemergence, 62 g ai/ha, scale 0 to 100 (0 no effect, 100 complete control)
[18] = Preemergence, 125 g ai/ha, scale 0 to 100 (0 no effect, 100 complete control)
[19] = Preemergence, 250 g ai/ha, scale 0 to 100, 0 no effect, 100 complete control
[20] = postemergence, 62 g ai/ha, scale 0 to 100, 0 no effect, 100 complete control
[21] = Postemergence, 31 g ai/ha, scale 0 to 100 (0 no effect, 100 complete control)

Cc1cc2ccccc2c(-c2c(O)c(C)nn(C)c2=O)c1C [Compound 34]
100: Field Poppy plant response rating [6, 21] | Plant response rating, Field Poppy [6, 15] | Plant response rating, Field Poppy [6, 16] | Plant response rating, Field Poppy [6, 17] | Plant response rating, Field Poppy [6, 18] | Plant response rating, Field Poppy [6, 19] | Plant response rating, Field Poppy [6, 20] | Plant response rating, Lambsquarters [8, 15] | Plant response rating, Lambsquarters [8, 16] | Plant response rating, Field Violet [10, 20] | Plant response rating, Chickweed [13, 15] | Plant response rating, Chickweed [13, 16] | Plant response rating, Chickweed [13, 18] | Plant response rating, Chickweed [13, 19] | Plant response rating, Chickweed [13, 20]
75: Plant response rating, Canarygrass [2, 15] | Field Violet plant response rating [10, 14] | Plant response rating, Field Violet [10, 18] | Oat, Wild plant response rating [12, 14] | Plant response rating, Oat, Wild [12, 17]
95: Plant response rating, Canarygrass [2, 19] | Plant response rating, Radish, Wild [3, 16] | Plant response rating, Lambsquarters [8, 18] | Plant response rating, Lambsquarters [8, 19] | Plant response rating, Lambsquarters [8, 20] | Plant response rating, Field Violet [10, 15] | Plant response rating, Field Violet [10, 16] | Plant response rating, Field Violet [10, 19] | Plant response rating, Oat, Wild [12, 15] | Plant response rating, Oat, Wild [12, 16] | Chickweed plant response rating [13, 14] | Plant response rating, Chickweed [13, 17]
40: Plant response rating, Wheat, Winter [9, 19]
25: Plant response rating, Wheat, Spring [4, 18] | Plant response rating, Bluegrass [7, 17] | Plant response rating, Wheat, Winter [9, 16] | Plant response rating, Wheat, Winter [9, 18] | Plant response rating, Wheat, Winter [9, 20] | Plant response rating, Field Violet [10, 17]
45: Plant response rating, Wheat, Spring [4, 16]
90: Plant response rating, Canarygrass [2, 18] | Plant response rating, Radish, Wild [3, 15] | Lambsquarters plant response rating [8, 14] | Plant response rating, Oat, Wild [12, 19]
30: Canarygrass plant response rating [2, 14]
60: Plant response rating, Radish, Wild [3, 18] | Plant response rating, Radish, Wild [3, 19] | Plant response rating, Wheat, Spring [4, 19] | Bluegrass plant response rating [7, 19] | Plant response rating (scale of 0 to 100), Lambsquarters ([8]; Preemergence) | Plant response rating, Lambsquarters [8, 17]
50: Plant response rating, Canarygrass [2, 17] | Plant response rating, Bluegrass [7, 18]
85: Plant response rating, Russian Thistle [1, 16] | Plant response rating, Canarygrass [2, 16] | Plant response rating, Radish, Wild [3, 20] | Plant response rating, Oat, Wild [12, 18] | Plant response rating, Oat, Wild [12, 20] | Plant response rating (scale of 0 to 100), Chickweed ([13]; Preemergence)
15: Plant response rating, Russian Thistle [1, 19] | Plant response rating, Wheat, Spring [4, 15] | Plant response rating, Bluegrass [7, 15] | Plant response rating, Bluegrass [7, 20] | Plant response rating, Wheat, Winter [9, 15] | Plant response rating (scale of 0 to 100), Field Violet ([10]; Preemergence)
70: Russian Thistle plant response rating [1, 14] | Plant response rating (scale of 0 to 100), Oat, Wild ([12]; Preemergence)
20: Plant response rating (scale of 0 to 100), Canarygrass ([2]; Preemergence) | Plant response rating, Barley, Winter [5, 16] | Plant response rating, Bluegrass [7, 16] | Barley, Spring plant response rating [11, 19]
65: Plant response rating, Canarygrass [2, 20] | Radish, Wild plant response rating [3, 14] | Barley, Winter plant response rating [5, 19]
5: Wheat, Winter plant response rating [9, 14] | Plant response rating, Barley, Spring [11, 16]
0: Plant response rating (scale of 0 to 100), Russian Thistle ([1]; Preemergence) | Plant response rating, Russian Thistle [1, 17] | Plant response rating (scale of 0 to 100), Radish, Wild ([3]; Preemergence) | Plant response rating, Radish, Wild [3, 17] | Wheat, Spring plant response rating [4, 14] | Plant response rating (scale of 0 to 100), Wheat, Spring ([4]; Preemergence) | Plant response rating, Wheat, Spring [4, 17] | Plant response rating, Barley, Winter [5, 21] | Plant response rating, Barley, Winter [5, 15] | Plant response rating (scale of 0 to 100), Barley, Winter ([5]; Preemergence, 31 g ai/ha) | Plant response rating, Barley, Winter [5, 17] | Plant response rating, Barley, Winter [5, 18] | Plant response rating, Barley, Winter [5, 20] | Plant response rating (scale of 0 to 100), Bluegrass ([7]; Preemergence, 31 g ai/ha) | Plant response rating (scale of 0 to 100), Wheat, Winter ([9]; Preemergence) | Plant response rating, Wheat, Winter [9, 17] | Plant response rating, Barley, Spring [11, 21] | Plant response rating, Barley, Spring [11, 15] | Plant response rating (scale of 0 to 100), Barley, Spring ([11]; Preemergence, 31 g ai/ha) | Plant response rating, Barley, Spring [11, 17] | Plant response rating, Barley, Spring [11, 18] | Plant response rating, Barley, Spring [11, 20]
80: Plant response rating, Russian Thistle [1, 15] | Plant response rating, Russian Thistle [1, 20]
10: Plant response rating, Russian Thistle [1, 18] | Plant response rating, Wheat, Spring [4, 20] | Bluegrass plant response rating [7, 21]

Cc1nn(C)c(=O)c(-c2c(C)sc3c(C)cc(Cl)cc23)c1O [Compound 35]
65: Field Violet plant response rating [10, 14]
0: Plant response rating (scale of 0 to 100), Russian Thistle ([1]; Preemergence) | Plant response rating, Russian Thistle [1, 17] | Plant response rating, Russian Thistle [1, 18] | Plant response rating (scale of 0 to 100), Wheat, Spring ([4]; Preemergence) | Plant response rating, Wheat, Spring [4, 17] | Plant response rating, Barley, Winter [5, 21] | Plant response rating, Barley, Winter [5, 15] | Plant response rating (scale of 0 to 100), Barley, Winter ([5]; Preemergence, 31 g ai/ha) | Plant response rating, Barley, Winter [5, 17] | Plant response rating, Barley, Winter [5, 18] | Barley, Winter plant response rating [5, 19] | Plant response rating, Barley, Winter [5, 20] | Plant response rating (scale of 0 to 100), Wheat, Winter ([9]; Preemergence) | Plant response rating, Wheat, Winter [9, 17] | Plant response rating, Wheat, Winter [9, 18] | Plant response rating, Barley, Spring [11, 21] | Plant response rating (scale of 0 to 100), Barley, Spring ([11]; Preemergence, 31 g ai/ha) | Plant response rating, Barley, Spring [11, 17] | Plant response rating, Barley, Spring [11, 18] | Barley, Spring plant response rating [11, 19] | Plant response rating, Barley, Spring [11, 20]
25: Plant response rating, Russian Thistle [1, 19] | Plant response rating, Wheat, Spring [4, 15] | Plant response rating (scale of 0 to 100), Bluegrass ([7]; Preemergence, 31 g ai/ha) | Plant response rating, Bluegrass [7, 17] | Plant response rating, Bluegrass [7, 20]
95: Plant response rating, Russian Thistle [1, 16] | Plant response rating, Canarygrass [2, 18] | Plant response rating, Oat, Wild [12, 19] | Plant response rating (scale of 0 to 100), Chickweed ([13]; Preemergence) | Plant response rating, Chickweed [13, 17]
35: Plant response rating (scale of 0 to 100), Radish, Wild ([3]; Preemergence) | Bluegrass plant response rating [7, 21] | Plant response rating, Bluegrass [7, 15] | Plant response rating, Bluegrass [7, 18]
40: Plant response rating, Bluegrass [7, 16]
5: Plant response rating, Wheat, Spring [4, 18]
98: Plant response rating, Canarygrass [2, 19] | Plant response rating, Lambsquarters [8, 15] | Plant response rating, Lambsquarters [8, 16] | Plant response rating, Lambsquarters [8, 17] | Plant response rating, Field Violet [10, 16] | Plant response rating, Oat, Wild [12, 16]
30: Plant response rating, Canarygrass [2, 20] | Plant response rating, Wheat, Spring [4, 16] | Plant response rating, Wheat, Spring [4, 19]
20: Canarygrass plant response rating [2, 14] | Plant response rating, Wheat, Spring [4, 20] | Plant response rating, Wheat, Winter [9, 16]
80: Plant response rating, Canarygrass [2, 16] | Plant response rating, Oat, Wild [12, 17]
45: Bluegrass plant response rating [7, 19]
15: Wheat, Spring plant response rating [4, 14] | Plant response rating, Barley, Winter [5, 16] | Plant response rating, Wheat, Winter [9, 15] | Plant response rating, Wheat, Winter [9, 20] | Plant response rating (scale of 0 to 100), Field Violet ([10]; Preemergence) | Plant response rating, Barley, Spring [11, 16]
100: Plant response rating, Radish, Wild [3, 15] | Plant response rating, Radish, Wild [3, 16] | Plant response rating, Radish, Wild [3, 17] | Plant response rating, Radish, Wild [3, 18] | Plant response rating, Radish, Wild [3, 19] | Plant response rating, Radish, Wild [3, 20] | Field Poppy plant response rating [6, 21] | Plant response rating, Field Poppy [6, 15] | Plant response rating, Field Poppy [6, 16] | Plant response rating, Field Poppy [6, 18] | Plant response rating, Field Poppy [6, 19] | Plant response rating, Field Poppy [6, 20] | Plant response rating, Lambsquarters [8, 18] | Plant response rating, Lambsquarters [8, 19] | Plant response rating, Lambsquarters [8, 20] | Plant response rating, Field Violet [10, 19] | Plant response rating, Chickweed [13, 15] | Plant response rating, Chickweed [13, 16] | Plant response rating, Chickweed [13, 18] | Plant response rating, Chickweed [13, 19] | Plant response rating, Chickweed [13, 20]
75: Plant response rating, Russian Thistle [1, 20] | Plant response rating (scale of 0 to 100), Canarygrass ([2]; Preemergence) | Plant response rating (scale of 0 to 100), Field Poppy ([6]; Preemergence, 31 g ai/ha) | Lambsquarters plant response rating [8, 14] | Plant response rating, Field Violet [10, 15] | Plant response rating, Field Violet [10, 17] | Plant response rating, Field Violet [10, 20] | Plant response rating (scale of 0 to 100), Oat, Wild ([12]; Preemergence)
10: Wheat, Winter plant response rating [9, 14] | Plant response rating, Wheat, Winter [9, 19] | Plant response rating, Barley, Spring [11, 15]
85: Plant response rating, Russian Thistle [1, 15] | Plant response rating, Canarygrass [2, 17] | Radish, Wild plant response rating [3, 14] | Plant response rating, Field Poppy [6, 17] | Plant response rating, Field Violet [10, 18] | Oat, Wild plant response rating [12, 14] | Plant response rating, Oat, Wild [12, 15] | Plant response rating, Oat, Wild [12, 18]
70: Russian Thistle plant response rating [1, 14] | Plant response rating, Canarygrass [2, 15] | Plant response rating (scale of 0 to 100), Lambsquarters ([8]; Preemergence)
90: Plant response rating, Oat, Wild [12, 20] | Chickweed plant response rating [13, 14]
